PubChem BioAssay (NCI)
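Results reflect a 48-hour exposure of cells in 96-well plates to compound at five concentrations. GI50 is the concentration that inhibits growth by half. TGI: total growth inhibition.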

Experiments:
Test in all cases: growth of human tumour cells (NCI), 48 h
TK-10 renal = system: TK-10 renal
RXF 393 renal = system: RXF 393 renal
NCI-H226 lung = system: NCI-H226 lung
SR leukemia = system: SR leukemia
PC-3 prostate = system: PC-3 prostate
OVCAR-4 ovarian = system: OVCAR-4 ovarian
COLO 205 colon = system: COLO 205 colon
M14 melanoma = system: M14 melanoma
SK-MEL-28 melanoma = system: SK-MEL-28 melanoma
T-47D breast = system: T-47D breast

| Compound | GI50 (TK-10 renal) [µM] | TGI (TK-10 renal) [µM] | GI50 (RXF 393 renal) [µM] | TGI (RXF 393 renal) [µM] | GI50 (NCI-H226 lung) [µM] | TGI (NCI-H226 lung) [µM] | GI50 (SR leukemia) [µM] | TGI (SR leukemia) [µM] | GI50 (PC-3 prostate) [µM] | TGI (PC-3 prostate) [µM] | GI50 (OVCAR-4 ovarian) [µM] | TGI (OVCAR-4 ovarian) [µM] | GI50 (COLO 205 colon) [µM] | TGI (COLO 205 colon) [µM] | GI50 (M14 melanoma) [µM] | TGI (M14 melanoma) [µM] | GI50 (SK-MEL-28 melanoma) [µM] | TGI (SK-MEL-28 melanoma) [µM] | GI50 (T-47D breast) [µM] | TGI (T-47D breast) [µM] |
| --- | --- | --- | --- | --- | --- | --- | --- | --- | --- | --- | --- | --- | --- | --- | --- | --- | --- | --- | --- | --- |
| C[C@@]1(C(=O)O)CCC[C@]2(C)C1CC[C@@]13CC(=O)[C@@](CO)(CC[C@]12O)C3 (stereo partly drawn) | > 100 | > 100 | > 100 | > 100 | > 100 | > 100 | > 100 | > 100 | > 100 | > 100 | > 100 | > 100 | 6.16 | > 100 | > 100 | > 100 | > 100 | > 100 | 22.2 | > 100 |
| O=C(CCCCCCNC(=O)c1cnc(N(c2ccccc2)c2ccccc2)nc1)NO | 2.07 | 12.5 | 0.796 | 3.85 | 16.6 | > 91.4 | 1.22 | > 100 | 4.87 | > 100 | 5.56 | 72.9 | 1.79 | 4.1 | 3.57 | > 100 | 3.41 | 33.3 | 0.907 | 5.83 |
| C[C@H](NC(=O)[C@@H](C)N)[C@H](Oc1ccc2c(cnn2-c2ccc(F)cc2)c1)c1ccc2c(c1)OCCO2 | 2.22 | 5.25 | 3.58 | 11.2 | 2.64 | 15.8 | 2.03 | 5.24 |  |  | 2.84 | 12.1 | 1.83 | 3.61 | 1.68 | 3.3 | 1.75 | 3.4 | 2.19 | 5.41 |
| O=C1C(Cl)=C(Nc2cccc(Cl)c2)C(=O)N1Cc1ccc(Cl)cc1 | 3.37 | 15.4 | 0.778 | 22.6 | 0.119 | 1.37 | 0.215 |  | 1.32 | 11.9 | 4.68 | > 64.2 | 1.46 | 18.2 | 2.11 | 9.94 | 3.12 | 23.5 | 3.38 | 34 |
| CSC(=Nc1nnc(-c2ccc([N+](=O)[O-])cc2)s1)SC |  | 44.8 |  | 45.4 |  | > 100 |  | > 100 |  | > 100 |  | > 85 |  | > 100 |  | > 100 |  | > 100 |  | > 100 |
| CC[C@@H]1c2c(C#N)ncn2-c2cnc(Nc3ccc(C(=O)NC4CCN(C5CCN(CC6CC6)CC5)CC4)cc3OC)nc2N1C1CCCC1 | 1.03 | 2.23 | 0.0462 | 1.8 | 1.31 | 2.64 | 0.0387 | 1.02 | 0.0438 | 2.08 | 0.214 | 1.7 |  |  | 0.0316 | 1.35 | 0.127 | 1.75 | 1.3 | 2.88 |
| COc1ccc(C(=S)N2CCN(c3cccc(C)c3)CC2)cc1OC | 7.99 | > 100 | 6.05 | > 100 | > 100 | > 100 | 1.53 | > 100 |  |  | 57.7 | > 100 | 3.88 | > 100 | 3.18 | > 100 | 5.42 | > 100 | 4.33 | > 100 |
